Source: patent US11040976B2, “Substrate selective inhibitors of insulin-degrading enzyme (IDE) and uses thereof” (President and Fellows of Harvard College, priority 2015, dated 2021)
Where a name gives a salt, the structure may show the parent alone.

molecular target: T1, recombinant human IDE42-1019 (Homo sapiens, UniProt P14735); test: Protease assay with fluorogenic peptide substrate Mca-[…](Dnp)-OH; assay type: biochemical; conditions: fluorogenic peptide Mca-RPPGFSAFK(Dnp)-OH; apparent IC50 for compounds with submaximal inhibition; read-out: IC50 (μM) Proteolysis
T1 construct: recombinant human IDE42-1019 (R&D Systems); purchased R&D Systems
T1 sequence (P14735 42-1019): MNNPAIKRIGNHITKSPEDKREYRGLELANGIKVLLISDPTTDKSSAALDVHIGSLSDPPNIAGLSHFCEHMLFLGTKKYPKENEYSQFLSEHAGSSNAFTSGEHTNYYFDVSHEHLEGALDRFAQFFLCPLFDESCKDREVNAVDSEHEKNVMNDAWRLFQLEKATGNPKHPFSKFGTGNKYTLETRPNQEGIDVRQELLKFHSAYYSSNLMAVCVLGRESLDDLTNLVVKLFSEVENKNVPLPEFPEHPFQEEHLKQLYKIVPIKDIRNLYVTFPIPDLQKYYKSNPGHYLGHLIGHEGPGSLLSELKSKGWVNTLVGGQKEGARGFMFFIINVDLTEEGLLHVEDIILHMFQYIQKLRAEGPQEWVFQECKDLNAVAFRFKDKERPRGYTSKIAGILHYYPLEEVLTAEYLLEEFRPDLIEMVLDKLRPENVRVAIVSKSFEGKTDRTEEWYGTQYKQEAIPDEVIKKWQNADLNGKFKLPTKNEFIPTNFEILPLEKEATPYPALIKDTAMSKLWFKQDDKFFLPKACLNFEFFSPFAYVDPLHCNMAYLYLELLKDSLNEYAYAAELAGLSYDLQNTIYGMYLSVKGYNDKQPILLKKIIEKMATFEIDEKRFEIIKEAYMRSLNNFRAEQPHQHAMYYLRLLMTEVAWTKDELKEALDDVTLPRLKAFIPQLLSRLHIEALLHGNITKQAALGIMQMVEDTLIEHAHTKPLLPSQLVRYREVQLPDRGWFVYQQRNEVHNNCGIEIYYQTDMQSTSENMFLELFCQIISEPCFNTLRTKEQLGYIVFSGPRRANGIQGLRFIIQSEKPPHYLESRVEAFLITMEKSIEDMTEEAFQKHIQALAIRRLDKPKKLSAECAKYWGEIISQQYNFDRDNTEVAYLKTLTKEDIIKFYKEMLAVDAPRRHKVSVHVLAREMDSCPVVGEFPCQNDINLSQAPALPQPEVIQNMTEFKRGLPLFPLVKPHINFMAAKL
Description: The proteases IDE42-1019, recombinant human IDE42-1019 (R&D Systems), neprilysin (R&D), and angiotensin-converting enzyme (R&D) were assayed using the fluorophore/quencher-tagged peptide substrate Mca-[…](Dnp)-OH (SEQ ID NO: 24) (R&D) according to the manufacturer's instructions and using the recommended buffers (fluorophore Mca=(7-methoxycourmarin-4-yl)acetyl and quencher Dnp=2,4-dinitrophenyl). For IDE the recommended buffer is 50 mM Tris pH 7.5, 1 M NaCl. The enzyme mixtures (48 μL) were transferred to a 96-well plate and combined with 2 μL of inhibitor in DMSO solutions, in 3-fold dilution series. The mixtures were allowed to equilibrate for 10 minutes and the enzymatic reaction was started by addition of substrate peptide in assay buffer (50 μL), mixed, and monitored on a fluorescence plate reader (excitation at 320 nm, emission at 405 nm). Similarly, thimet oligopeptidase (R&D) and neurolysin (R&D) were assayed using substrate Mca-PLGPK(Dnp)-OH (SEQ ID NO: 25) (R&D) according to the manufacturer's instructions and using the recommended buffers. Matrix metalloproteinase-1 (R&D) was activated and assayed according to the manufacturer's instructions with substrate Mca-KPLGL-Dpa-AR-NH2 (SEQ ID NO: 20) (R&D) (quencher DPA=N-3-(2,4,dinitrophenyl)-L-2,3-diaminopropionyl). All assay data points were obtained in duplicate.

Question: Cc1ccccc1S(=O)(=O)NCCc1ccc(-c2cccc(C)c2C)cc1 [J3] was tested. Which IC50 did it give?
Answer: The IC50 was 2.5 µM.

Question: How did the IC50 turn out when Cc1ccccc1S(=O)(=O)N1CCC(c2ccc(-c3cccc(C)c3C)cc2)CC1 [J6] was run?
Answer: The IC50 was 0.3 µM.

Question: Which IC50 does the source give for Cc1ccccc1S(=O)(=O)N1CC=C(c2ccc(-c3cccc(C)c3C)cc2)CC1 [J7] here?
Answer: The IC50 was greater than 100 µM.

Question: For Cc1cccc(-c2ccc(N3CCN(C(=O)C4CCCCC4)CC3)cc2)c1C [J9], which IC50 is on record?
Answer: The IC50 was 2.5 µM.

Question: Cc1cccc(-c2ccc(N3CCN(C(=O)C4CCCC4)CC3)cc2)c1C [J10] was tested. Which IC50 did it give?
Answer: Its IC50 is 2.5 µM.

Question: Cc1cccc(-c2ccc(N3CCN(C(=O)CC4CCCCC4)CC3)cc2)c1C [J16] was tested. Which IC50 did it give?
Answer: The IC50 was 2.5 µM.

Question: Cc1cccc(-c2ccc(C3CCN(C(=O)c4ccc5nccnc5c4)CC3)cc2)c1C [J17] was tested. Which IC50 did it give?
Answer: The IC50 was 0.2 µM.

Question: Which IC50 does the source give for Cc1ccccc1S(=O)(=O)N1CCCCN2C(C1)[C@H](c1ccc(-c3cccc(C)c3C)cc1)[C@H]2CN (stereo partly shown) [JP-8N] here?
Answer: Its IC50 is 0.002 µM.

Question: With Cc1cccc(-c2ccc([C@@H]3[C@@H](CN(C)C)N4CCCCN(S(=O)(=O)c5ccccc5C(F)(F)F)C[C@@H]34)cc2)c1C [JP-17-DMA] as the molecule, how does the IC50 read?
Answer: Its IC50 is 0.1 µM.

Question: How did the IC50 turn out when CNC[C@@H]1[C@@H](c2ccc(-c3cccc(C)c3C)cc2)[C@@H]2CN(S(=O)(=O)c3ccccc3C(F)(F)F)CCCCN12 [JP-17-NHMe] was run?
Answer: Its IC50 is 0.007 µM.

Question: How did the IC50 turn out when COC[C@@H]1[C@@H](c2ccc(-c3cccc(C)c3C)cc2)[C@@H]2CN(S(=O)(=O)c3ccccc3C(F)(F)F)CCCCN12 [JP-17-OMe] was run?
Answer: The IC50 was 0.05 µM.

Question: Cc1cccc(-c2ccc([C@@H]3[C@@H](CF)N4CCCCN(S(=O)(=O)c5ccccc5C(F)(F)F)C[C@@H]34)cc2)c1C [JP-18 TFA salt] was tested. Which IC50 did it give?
Answer: The IC50 was 0.01 µM.

Question: For Cc1ccccc1S(=O)(=O)N1C/C=C\CN2C(C1)[C@H](c1ccc(-c3cccc(Cl)c3C)cc1)[C@H]2CO (stereo partly shown) [JP-28], which IC50 is on record?
Answer: The IC50 was 0.003 µM.

Question: Which IC50 does the source give for Cc1cc(O)ccc1-c1ccc([C@@H]2[C@@H](CO)N3CCCCN(S(=O)(=O)c4ccccc4C)C[C@@H]23)cc1 [JP-31] here?
Answer: Its IC50 is 3 µM.

Question: Cc1c(Cl)cccc1-c1ccc([C@H]2C3CN(S(=O)(=O)c4ccccc4C(F)(F)F)C/C=C\CN3[C@@H]2CF)cc1 (stereo partly shown) [JP-38] was tested. Which IC50 did it give?
Answer: Its IC50 is 0.06 µM.

Question: With Cc1cc(F)ccc1-c1ccc([C@@H]2[C@@H](CO)N3CCCCN(S(=O)(=O)c4ccccc4C)C[C@@H]23)cc1 [JP-39] as the molecule, how does the IC50 read?
Answer: Its IC50 is 0.8 µM.

Question: For COC[C@@H]1[C@@H](c2ccc(-c3ccc(F)c(C)c3C)cc2)[C@@H]2CN(S(=O)(=O)c3ccccc3C(F)(F)F)CCCCN12 [JP-41-OMe], which IC50 is on record?
Answer: Its IC50 is 0.09 µM.

Question: With Cc1c(F)ccc(-c2ccc([C@@H]3[C@@H](CO)N4CCCCN(S(=O)(=O)c5ccccc5C(F)(F)F)C[C@@H]34)cc2)c1C [JP-41] as the molecule, how does the IC50 read?
Answer: The IC50 was 0.03 µM.

Question: Which IC50 does the source give for Cc1c(F)ccc(-c2ccc([C@@H]3[C@@H](CO)N4CCCCN(S(=O)(=O)c5cnc(C)n5C)C[C@@H]34)cc2)c1C [JP-42] here?
Answer: The IC50 was 0.008 µM.

Question: COC[C@@H]1[C@@H](c2ccc(-c3ccc(F)c(C)c3C)cc2)[C@@H]2CN(S(=O)(=O)c3nccn3C)CCCCN12 [JP-43-OMe] was tested. Which IC50 did it give?
Answer: Its IC50 is 0.15 µM.

Question: Which IC50 does the source give for Cc1c(F)ccc(-c2ccc([C@@H]3[C@@H](CO)N4CCCCN(S(=O)(=O)c5nccn5C)C[C@@H]34)cc2)c1C [JP-43] here?
Answer: The IC50 was 0.004 µM.

Question: For COc1cc(N)ccc1S(=O)(=O)N1CCCCN2[C@H](CO)[C@@H](c3ccc(-c4cccc(C)c4C)cc3)[C@@H]2C1 [JP-S5], which IC50 is on record?
Answer: The IC50 was 0.5 µM.

Question: For COC[C@@H]1[C@@H](c2ccc(-c3cccc(C)c3C)cc2)[C@@H]2CN(S(=O)(=O)c3ccnn3C(C)C)CCCCN12 [JP-S10-OMe], which IC50 is on record?
Answer: The IC50 was greater than 0.2 µM.

Question: How did the IC50 turn out when Cc1cccc(-c2ccc([C@@H]3[C@@H](CO)N4CCCCN(S(=O)(=O)c5ccnn5C(C)C)C[C@@H]34)cc2)c1C [JP-S10] was run?
Answer: The IC50 was 0.015 µM.

Question: How did the IC50 turn out when CC(=O)Nc1ccc(S(=O)(=O)N2CCCCN3[C@H](CO)[C@@H](c4ccc(-c5cccc(C)c5C)cc4)[C@@H]3C2)c(C)c1 [JP-S12] was run?
Answer: Its IC50 is 0.03 µM.

Question: Which IC50 does the source give for Cc1cc2c(cc1S(=O)(=O)N1CCCCN3[C@H](CO)[C@@H](c4ccc(-c5cccc(C)c5C)cc4)[C@@H]3C1)OCC(=O)N2 [JP-S13] here?
Answer: The IC50 was 0.1 µM.

Question: Cc1cccc(-c2ccc([C@@H]3[C@@H](CO)N4CCCCN(S(=O)(=O)c5ccc(F)cc5C(F)(F)F)C[C@@H]34)cc2)c1C [JP-S15] was tested. Which IC50 did it give?
Answer: The IC50 was 0.05 µM.

Question: How did the IC50 turn out when CCCn1nccc1S(=O)(=O)N1C/C=C\CN2C(C1)[C@H](c1ccc(-c3cccc(C)c3C)cc1)[C@H]2CO (stereo partly shown) [JP-S16] was run?
Answer: The IC50 was 0.03 µM.
